In paper PMC3493696 (Life sciences, 2012):
Read-outs that look alike come from different tables or passages of the source.

Experiments:
CB2 vs. CB1 = details: ref Beltramo 2009; Bingham et al. 2007; Mancini et al. 2009; Nackley et al. 2003; Quartilho et al. 2003; Yao et al. 2006; cited from earlier work
human serum albumin = human serum albumin (Homo sapiens, UniProt P02768); assay: Binding to aqueous human serum albumin; type: in vitro ADME; details: 50 µM
[1] = Solution stability in acetonitrile at 37°C; type: physicochemical; details: at least 24 hours, 20 µM
[2] = ref Beltramo 2009, cited from earlier work
[3] = Stability in mouse plasma at 37°C; type: in vitro ADME; details: at least 6 hours, 20 µM
CB2 [4] = target: T1, CB2 (Homo sapiens, UniProt P34972); details: ref Beltramo 2009; Bingham et al. 2007; Mancini et al. 2009; Nackley et al. 2003; Quartilho et al. 2003; Yao et al. 2006; cited from earlier work
[5] = Microsomal metabolism and LC-MS/MS metabolite analysis, human liver microsomes; type: in vitro ADME; details: 100 µM, 30 minutes, 37°C, NADPH
[6] = Thermal stability of aqueous AM-1241*HCl solutions; type: physicochemical; details: 0.003, 0.03, 0.3 and 1 mg/mL, up to 14 days
[7] = Plasma pharmacokinetics in mice after i.v. or p.o. AM-1241*HCl; type: in vivo, mouse
[8] = Microsomal metabolism and LC-MS/MS metabolite analysis, rat liver microsomes; type: in vitro ADME; details: 100 µM, 30 minutes, 37°C, NADPH
plasma proteins = assay: Plasma-protein binding in undiluted mouse plasma; type: in vitro ADME; details: up to 50 µM, 30 minute incubation at 37°C, triplicate
[9] = Tissue distribution of AM-1241 in mice after i.v. or p.o. administration; type: in vivo, mouse; details: 25 mg/kg; for time by which concentration became undetectable: i.v.
[10] = i.p., murine model; ref Storr et al. 2009; cited from earlier work
[11] = local (intraplantar) administration; ref Malan et al. 2001; cited from earlier work
mice = assay: Responses of mice to AM-1241 administration; type: in vivo, mouse
[12] = 1.0 mg/kg i.v.; ref Dhawan et al. 2006; Petitet et al. 1999; cited from earlier work
[13] = rodents, doses of 0.1–100 mg/kg; ref Valenzano et al. 2005; cited from earlier work
[14] = ref Giblin et al. 2007; cited from earlier work
CB2 [15] = target: T1, CB2; assay: Preliminary experiments: CB2 agonist potency of metabolite; details: data not shown

Sequence of human serum albumin (P02768 25-609): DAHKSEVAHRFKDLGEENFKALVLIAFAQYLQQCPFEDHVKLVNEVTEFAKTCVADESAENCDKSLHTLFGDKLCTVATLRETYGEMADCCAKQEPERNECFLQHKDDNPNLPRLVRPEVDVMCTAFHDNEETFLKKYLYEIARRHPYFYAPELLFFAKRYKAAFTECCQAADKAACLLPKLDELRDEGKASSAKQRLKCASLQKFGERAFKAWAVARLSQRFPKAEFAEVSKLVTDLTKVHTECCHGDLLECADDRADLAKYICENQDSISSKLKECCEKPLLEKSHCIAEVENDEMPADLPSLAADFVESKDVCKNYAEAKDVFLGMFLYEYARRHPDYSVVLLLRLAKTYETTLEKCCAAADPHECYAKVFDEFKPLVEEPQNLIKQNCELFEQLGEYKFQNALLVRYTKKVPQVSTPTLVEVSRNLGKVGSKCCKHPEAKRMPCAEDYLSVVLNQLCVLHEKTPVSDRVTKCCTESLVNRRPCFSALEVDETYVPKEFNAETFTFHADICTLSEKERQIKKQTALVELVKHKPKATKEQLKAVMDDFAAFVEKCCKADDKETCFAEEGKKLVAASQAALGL
T1 sequence (P34972 whole entry, species assumed): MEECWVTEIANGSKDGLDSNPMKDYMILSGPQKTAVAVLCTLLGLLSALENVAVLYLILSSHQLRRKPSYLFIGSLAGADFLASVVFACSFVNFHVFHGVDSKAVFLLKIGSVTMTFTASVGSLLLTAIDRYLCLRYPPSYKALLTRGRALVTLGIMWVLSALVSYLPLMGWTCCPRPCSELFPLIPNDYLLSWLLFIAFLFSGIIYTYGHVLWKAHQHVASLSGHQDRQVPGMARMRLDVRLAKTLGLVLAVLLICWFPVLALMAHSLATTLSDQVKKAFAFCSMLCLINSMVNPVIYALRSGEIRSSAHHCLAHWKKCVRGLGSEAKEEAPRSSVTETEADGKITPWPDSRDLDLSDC

Question: With `CN1CCCCC1Cn1cc(C(=O)c2cc([N+](=O)[O-])ccc2I)c2ccccc21` (racemic) [AM-1241, (R,S)-(2-iodo-5-nitrophenyl)-[1-((1-methyl-piperidin-2-yl)methyl-1H-indol-3-yl]-methanone] as the compound, how does the “selectivity for CB2 vs. CB1” value (CB2 vs. CB1) read?
Answer: Its value is “up to 340 fold”.

Question: And the bound to albumin (human serum albumin; 0.4% (w/v) aqueous human serum albumin)?
Answer: Its bound to albumin is 56%.

Question: What about the bound to albumin (human serum albumin; 1.0% (w/v) aqueous human serum albumin) of the same compound?
Answer: The bound to albumin was 85%.

Question: What about the “recovery after incubation (stability)” value [1] of the same compound?
Answer: Its value is over 95%.

Question: What about the “doses reported efficacious in various preclinical pain models” value ([2]; i.v., Beltramo et al. 2006, Ohta et al. 2008) of the same compound?
Answer: The value was “up to 6 mg/kg”.

Question: And the “recovery after incubation (stability)” value [3]?
Answer: Its value is over 95%.

Question: What about the CB2 affinity (CB2 [4]) of the same compound?
Answer: Its CB2 affinity is “low nanomolar”.

Question: And the “metabolites formed compared with rat liver microsomes” value [5]?
Answer: Its value is “the same metabolites”.

Question: And the “stability of aqueous samples” value ([6]; 4°C)?
Answer: The value was “stable”.

Question: What about the “stability of aqueous samples” value ([6]; room temperature) of the same compound?
Answer: The value was “stable”.

Question: And the “half-life after p.o. relative to i.v. administration” value ([7]; 25 mg/kg)?
Answer: The value was “over 2 fold”.

Question: And the plasma half-life ([7]; 25 mg/kg i.v.)?
Answer: The plasma half-life was 0.617 h.

Question: And the “half-life after p.o. administration” value ([7]; 25 mg/kg p.o.)?
Answer: Its value is 1.37 h.

Question: And the oral bioavailability ([7]; 25 mg/kg, plasma AUC ratio p.o./i.v.)?
Answer: Its oral bioavailability is ~ 21%.

Question: And the “site of phase I microsomal metabolism (demethylation and hydroxylation products)” value [8]?
Answer: Its value is “primarily on the piperadine moiety”.

Question: And the “bound to plasma protein” value (plasma proteins)?
Answer: Its value is 99%.

Question: And the “time by which concentration became undetectable” value (“time” for short) ([9]; brain)?
Answer: The value was at most 120 min.

Question: What about the “time” value ([9]; intestine) of the same compound?
Answer: The value was at most 240 min.

Question: And the “time” value ([9]; kidney)?
Answer: Its value is at most 240 min.

Question: And the “time” value ([9]; liver)?
Answer: Its value is at most 90 min.

Question: What about the “detection in brain or liver” value ([9]; p.o.) of the same compound?
Answer: The value was “not in brain or liver”.

Question: And the “time” value ([9]; plasma)?
Answer: Its value is at most 240 min.

Question: And the “time” value ([9]; spleen)?
Answer: The value was at most 240 min.

Question: And the “daily dose required to reduce experimental colitis” value [10]?
Answer: The value was 20 to 40 mg/kg.

Question: And the “dose at which maximal analgesic efficacy was reached” value [11]?
Answer: Its value is 3.3 mg/kg.

Question: What about the toxicity (mice; 25 mg/kg orally or i.v., necropsies unremarkable) of the same compound?
Answer: Its toxicity is “not toxic”.

Question: And the “transient gaping response (animals affected)” value (mice; 25 mg/kg p.o.)?
Answer: Its value is “Two out of 29 mice”.

Question: And the “gross organ or tissue abnormalities at end-point necropsy” value (mice; any AM-1241 treatment (25 mg/kg i.v. or p.o.))?
Answer: The value was “No gross organ or tissue abnormalities”.

Question: Which behavior after administration (mice; 25 mg/kg i.v.) does the source give for `CN1CCCCC1Cn1cc(C(=O)c2cc([N+](=O)[O-])ccc2I)c2ccccc21.Cl` (stereo not shown) [AM-1241*HCl] here?
Answer: The behavior after administration was “initially somewhat hypoactive, but behaved normally by 90 minutes post-dose”.

Question: What about the behavior after administration (mice; 25 mg/kg p.o.) of the same compound?
Answer: The behavior after administration was “remained alert and apparently unaffected”.

Question: And the “transient gaping response (animals affected)” value (mice; 25 mg/kg p.o.)?
Answer: Its value is “two of the twenty-nine animals”.

Question: For `CN1CCCCC1Cn1cc(C(=O)c2ccccc2I)c2ccccc21` (stereo not shown) [AM-2233], which catalepsy [12] is on record?
Answer: Its catalepsy is “profound catalepsy”.

Question: Which results are given for `COc1ccc2c(c1)c(CCN1CCOCC1)c(C)n2C(=O)c1cccc(Cl)c1Cl` [GW405833, reference compound]?
Answer: dose of maximal effective antihyperalgesic and analgesic activities ([2]; i.p.): 1 to 3 mg/kg; oral bioavailability [13]: 0%

Question: With `O=C(NCC1CCOCC1)c1cnc(Nc2ccc(Cl)cc2Cl)nc1C(F)(F)F` [GW842166X] as the compound, how does the “half-life after p.o. administration” value [14] read?
Answer: Its value is 3 to 5 h.

Question: Which catalepsy [12] does the source give for `Cc1c(C(=O)c2cccc3ccccc23)c2cccc3c2n1[C@H](CN1CCOCC1)CO3` [WIN 55,212-2] here?
Answer: The catalepsy was “profound catalepsy”.

Question: Which “CB2 agonist potency compared to the parent compound” value (CB2 [15]) does the source give for `O=C(c1cc([N+](=O)[O-])ccc1I)c1cn(CC2CCCCN2)c2ccccc12` (stereo not shown) [demethylated metabolite of AM-1241] here?
Answer: Its value is “somewhat less potent”.
